Molecular target: T1, hPAT1 (SLC36A1) (Homo sapiens, UniProt Q7Z2H8)
T1 construct: full open reading frame amplified from human small intestine RNA, pTNT vector, cRNA injected into Xenopus laevis oocytes; 476 residues, about 53 kDa
Experiment: two-electrode voltage clamp of Xenopus oocytes, substrate-induced current; inhibition of NA-Fe(II)-elicited current
Type: cell-based
Details: pH 6.0, -60 mV; 0.5 mM NA-Fe(II) (figure legend; Methods say 1 mM)

T1 sequence (Q7Z2H8 whole entry): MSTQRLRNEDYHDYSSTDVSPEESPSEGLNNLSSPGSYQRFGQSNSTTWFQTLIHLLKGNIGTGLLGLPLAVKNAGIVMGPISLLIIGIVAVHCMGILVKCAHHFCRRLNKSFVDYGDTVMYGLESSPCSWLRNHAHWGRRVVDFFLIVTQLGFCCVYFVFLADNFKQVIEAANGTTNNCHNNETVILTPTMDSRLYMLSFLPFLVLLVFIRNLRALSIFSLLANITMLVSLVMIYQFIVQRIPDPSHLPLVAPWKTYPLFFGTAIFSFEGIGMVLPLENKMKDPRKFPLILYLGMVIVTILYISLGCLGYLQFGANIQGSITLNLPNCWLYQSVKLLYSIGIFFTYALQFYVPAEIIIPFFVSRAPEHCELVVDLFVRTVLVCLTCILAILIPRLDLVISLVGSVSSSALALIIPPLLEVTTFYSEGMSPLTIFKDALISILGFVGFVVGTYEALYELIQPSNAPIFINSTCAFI

`N[C@@H](Cc1c[nH]c2ccc(O)cc12)C(=O)O` [5-hydroxytryptophan] was tested, and the “% of original current remaining at 5 mM” value was 30.1%.
